In patent US20160031863A1, “HISTONE DEACETYLASE INHIBITORS AND COMPOSITIONS AND METHODS OF USE THEREOF” (CHDI FOUNDATION, INC., priority 2013, published 2016) one finds IC50 data, which are given here for 16 molecules.

Structures are written as SMILES. Some results are limits rather than exact numbers.

The subject of experiment [1] is cellular histone deacetylase enzymatic activity in Jurkat E6-1 cells. Put plainly: Inhibition of cellular HDAC activity in Jurkat E6-1 cells, fluorogenic substrate Boc-Lys(Tfa)-AMC. Particulars: Homo sapiens. In kind it is cell-based. Here is the method:
The potency of the compounds is quantified by measuring the cellular histone deacetylase enzymatic activity using the fluorogenic substrate, Boc-Lys(Tfa)-AMC. After penetration in Jurkat E6-1 cells, the substrate is deacetylated to Boc-Lys-AMC. After cell lysis and cleavage by trypsin, the fluorophore AMC is released from the deacetylated substrate only. The fluorescence of the sample is directly related to the histone deacetylase activity in the sample.
Jurkat E6.1 cells are cultured according to standard cell culture protocols in Jurkat E6.1 Growth Media (RPMI without phenol red, 10% FBS, 10 mM HEPES, and 1 mM Sodium Pyruvate). Jurkat E6.1 cells are counted using a Coulter Counter and resuspended in Jurkat E6.1 growth media at a concentration of 75,000 cells/35 μL. 35 μL or 75,000 cells is seeded into Greiner microtitre assay plates. The plates are then incubated at 37° C. and 5% CO2 while other assay components are being prepared.
(§1) Serial dilutions of the compounds being tested and control reference compound (1-(5-(3-((4-(1,3,4-oxadiazol-2-yl)phenoxy)methyl)-1,2,4-oxadiazol-5-yl)thiophen-2-yl)-2,2,2-trifluoroethanone) are made by first resuspending the lyophilized compound to a final concentration of 10 mM in 100% DMSO. Stocks of 70 μL aliquots of the 10 mM compound in DMSO are prepared and stored at −20° C. From one stock aliquot of each compound to be tested and the reference compound, a 16-point serial dilution is prepared according to Table 1 using a 125 μL 16-channel Matrix multi-channel pipette.
2 μL (200×) of each diluted solution and each control (full activity: 100% DMSO alone or full inhibition 1 mM) is stamped into V-bottom polypropylene 384-well compound plates using either the Bravo, Janus, or 12.5 μL 16-channel Matrix multi-channel pipette. Each well with the 200× compound solution is diluted 1:20 by the addition of 38 μL Jurkat assay buffer+DMSO (9.5% DMSO, RPMI without phenol red, 0.09% FBS, 9 mM Hepes, and 0.9 mM Sodium Pyruvate equilibrated to room temperature)
5× (500 μM) substrate is prepared just prior to the addition to the assay. The 5× substrate is prepared by diluting a 100 mM Boc-Lys(Tfa)-AMC in DMSO solution 1:200 by adding it drop-wise to Jurkat assay medium (RPMI without phenol red, 0.1% FBS, 10 mM Hepes, and 1 mM Sodium Pyruvate equilibrated to 37° C.) while vortexing at slow speed to prevent precipitation.
10 mL of 3× lysis buffer is prepared with 8.8 ml of 3× stock lysis buffer (50 mM Tris-HCl, pH 8.0, 137 mM NaCl, 2.7 mM KCl, 1 mM MgCl2, 1% Nonidet P40 Substitute equilibrated to room temperature) and 1.2 mL of 3 mg/mL Trypsin equilibrated to room temperature.
5 μL of each solution of 1:20 diluted compound from above is transferred to the Greiner microtitre assay plates with 75,000 cells/well using the Bravo. Cells are then incubated for 2 hours at 37° C. and 5% CO2. The assay is then started by adding 10 μL of 5× (500 μM) substrate to the assay plate using either the Bravo or 16-channel Matrix multi-channel pipette. The cells are then incubated for 3 hours at 37° C. and 5% CO2. Next, 25 μL of 3× lysis buffer is added to each well using either the 125 μL 16 channel pipette or the Bravo. The assay plate is then incubated overnight (15-16 hours) at 37° C. and 5% CO2. The following day, the plates are shaken on an orbital shaker for 1 minute at 900 rpm. Finally the top read fluorescence (Excitation: 355 nm, Emission: 460 nm) is measured using PerkinElmer EnVision.

Experiment [2] deals with T1, Histone Deacetylase 4 (HDAC4) catalytic domain (Homo sapiens, UniProt P56524).
T1 construct: 6x histidine tag (C); purchased BioFocus
Briefly: Inhibition of HDAC4 catalytic domain enzymatic activity, fluorogenic substrate Boc-Lys(Tfa)-AMC. The class given is biochemical.
Source text: The potency of compounds is quantified by measuring the Histone Deacetylase 4 (HDAC4) catalytic domain enzymatic activity using the fluorogenic substrate, Boc-Lys(Tfa)-AMC. The substrate is deacetylated to Boc-Lys-AMC by HDAC4. Cleavage by trypsin results in the release of the fluorophore AMC from the deacetylated substrate. The fluorescence of the sample is directly related to the histone deacetylase activity in the sample.
as §1, with “dimethyl sulfoxide (DMSO).” for “DMSO.”, “60” for “70”, “pipette (Matrix Technologies Ltd).” for “pipette.”
2 μL (200×) of each diluted solution and each control (full activity: 100% DMSO alone or full inhibition 1 mM) is stamped into V-bottomed polypropylene 384-well compound plates using either the Bravo (384-well head from Agilent) or 12.5 μL 16-channel Matrix multi-channel pipette (Matrix Technologies Ltd).
A working solution of enzyme is prepared from a 500 μg/mL stock aliquot of HDAC4 catalytic domain (thawed on ice) diluted to 0.2 μg/mL with assay buffer (50 mM Tris-HCl, 137 mM NaCl, 2.7 mM KCl, and 1 mM MgCl2 at pH 8 and equilibrated to room temperature) just prior to the addition of the enzyme to the assay.
5× (50 μM) substrate is prepared just prior to the addition to the assay. A 1 mM substrate stock is made by diluting a 100 mM Boc-Lys(Tfa)-AMC in DMSO solution 1:100 by adding it drop-wise to assay buffer (equilibrated to room temperature) while vortexing at slow speed to prevent precipitation. The 5× substrate is prepared by diluting the 1 mM substrate solution 1:20 by adding it drop-wise to assay buffer (equilibrated to room temperature) while vortexing at slow speed to prevent precipitation.
3× (30 μM) Developer/Stop Solution is prepared just prior to addition to the plate by diluting a stock solution of 10 mM reference compound 1:333 in 25 mg/mL trypsin (PAA Laboratories Ltd.) equilibrated to room temperature.
5 μL of each solution of 1:20 diluted compound from above is transferred to a clear bottomed, black, 384-well assay plate using the Bravo or the Janus (384-well MDT head from Perkin Elmer). Using a 16-channel Matrix multi-channel pipette, 35 μL of the working solution of HDAC4 catalytic domain enzyme (0.2 μg/mL in assay buffer) is transferred to the assay plate. The assay is then started by adding 10 μL of 5× (50 μM) substrate to the assay plates using either the Bravo, Janus or 16-channel Matrix multi-channel pipette. The assay plate is then shaken for two minutes on an orbital shaker at 900 rpm (rotations per minute). Next the plate is incubated for 15 minutes at 37° C. The reaction is stopped by adding 25 μL of 3× (30 μM) developer/stop solution to the assay plates using either the Bravo, Janus or a 16-channel Matrix multi-channel pipette. Assay plates are then shaken for 5 minutes on an orbital shaker at 1200 rpm. Next, the assay plates are incubated at 37° C. for 1 hour in a tissue culture incubator. Finally, the fluorescence is measured (Excitation: 355 nm, Emission: 460 nm) using PerkinElmer EnVision in top read mode.

T1 sequence (P56524 648-1032): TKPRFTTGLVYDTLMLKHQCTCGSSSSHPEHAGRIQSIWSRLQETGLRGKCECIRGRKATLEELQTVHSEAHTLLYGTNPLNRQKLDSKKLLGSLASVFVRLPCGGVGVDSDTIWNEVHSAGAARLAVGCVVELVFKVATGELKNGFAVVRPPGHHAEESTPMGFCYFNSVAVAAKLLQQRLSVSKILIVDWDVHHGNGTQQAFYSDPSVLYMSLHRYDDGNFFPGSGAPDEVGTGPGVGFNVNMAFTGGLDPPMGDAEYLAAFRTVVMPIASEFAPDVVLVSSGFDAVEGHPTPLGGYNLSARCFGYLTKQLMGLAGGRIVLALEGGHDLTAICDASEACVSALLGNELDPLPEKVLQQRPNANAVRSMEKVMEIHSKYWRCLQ

For `Cc1ccccc1-c1cc(C(=O)NO)n(-c2cccc(F)c2C)n1` [Example 10, N-hydroxy-1-(3-fluoro-2-methyl-phenyl)-3-(2-methyl-phenyl)-1H-pyrazole-5-carboxamide], the results for the IC50 in experiment [1] and in experiment [2] were 5.68 µM and 0.75 µM, respectively.

As to `O=C(NO)c1cc(C2=CCCC2)nn1-c1ccccc1` [Example 6, N-Hydroxy-3-(cyclopenten-1-yl)-1-phenyl-1H-pyrazole-5-carboxamide], the figures for the half-inhibitory concentration (IC50) in experiment [1] and in experiment [2] were 20.3 µM and 2.7 µM, respectively.

Regarding `O=C(NO)c1cc(-c2ccccc2Cl)cn1-c1ccccc1` [Example 16, N-Hydroxy-4-(2-chlorophenyl)-1-phenyl-pyrrole-2-carboxamide], the IC50 was determined as 6.17 µM in experiment [1] and 0.71 µM in experiment [2].

For `CN1CC=C(c2cc(C(=O)NO)n(-c3ccccc3)n2)CC1` [Example 11, N-Hydroxy-3-(1-methyl-3,6-dihydro-2H-pyridin-4-yl)-1-phenyl-1H-pyrazole-5-carboxamide], the IC50 came to 4.07 µM in experiment [1] and 0.24 µM in experiment [2].

Regarding `O=C(NO)c1cc(Cc2ccccc2)nn1-c1ccccc1` [Example 4, N-Hydroxy-3-benzyl-1-phenyl-1H-pyrazole-5-carboxamide], the IC50 was determined as 10.2 µM in experiment [1] and 0.96 µM in experiment [2].

With `O=C(NO)c1cc(C2CCCC2)nn1-c1ccccc1` [Example 7, N-Hydroxy-3-cyclopentyl-1-phenyl-1H-pyrazole-5-carboxamide], the values for the IC50 in experiment [1] and in experiment [2] were 12.1 µM and 1.8 µM, respectively.

On to `O=C(NO)c1cc(OCc2ccccc2)nn1-c1ccccc1` [Example 13, N-Hydroxy-3-benzyloxy-1-phenyl-1H-pyrazole-5-carboxamide], for which the IC50 in experiment [1] is greater than 50 µM; in experiment [2], 27.5 µM.

With `Cc1ccccc1-c1cc(C(=O)NO)n(-c2ccccc2)n1` [Example 3, N-Hydroxy-3-(2-methylphenyl)-1-phenyl-1H-pyrazole-5-carboxamide], the IC50 in experiment [1] came to 7.3 µM; in experiment [2] it was 0.94 µM.

Regarding `O=C(NO)c1cc(-c2ccccc2)nn1-c1ccccc1` [Example 1, N-Hydroxy-1,3-diphenylpyrazole-5-carboxamide], the IC50 in experiment [1] was found to be 24.2 µM; in experiment [2], 10.3 µM.

`Cc1ccccc1-c1cc(C(=O)NO)n(-c2ccccc2C)n1` [Example 12, N-Hydroxy-1,3-bis(2-methylphenyl)-1H-pyrazole-5-carboxamide]: the IC50 worked out at 16 µM in experiment [1] and 2.4 µM in experiment [2].

Regarding `Cc1ncccc1-c1cc(C(=O)NO)n(-c2ccccc2)n1` [Example 9, N-Hydroxy-3-(2-methyl-3-pyridyl)-1-phenyl-1H-pyrazole-5-carboxamide], the results for the IC50 in experiment [1] and in experiment [2] were 6.9 µM and 1.4 µM, respectively.

For `O=C(NO)c1cc(-c2ccccc2Cl)nn1-c1ccccc1` [Example 5, N-Hydroxy-3-(2-chlorophenyl)-1-phenyl-1H-pyrazole-5-carboxamide], the IC50 in experiment [1] is 2.82 µM; in experiment [2] it was 0.38 µM.

`O=C(NO)c1cc(N2CCCC2)nn1-c1ccccc1` [Example 14, N-Hydroxy-1-phenyl-3-pyrrolidin-1-yl-1H-pyrazole-5-carboxamide]: the figures for the IC50 in experiment [1] and in experiment [2] were 46.2 µM and 9.9 µM, respectively.

As to `Cc1ccccc1-c1cc(C(=O)NO)n(-c2ccccc2)c1` [Example 15, N-Hydroxy-4-(2-methylphenyl)-1-phenyl-pyrrole-2-carboxamide], the IC50 in experiment [1] is 13.8 µM; in experiment [2], 1.4 µM.

Regarding `O=C(NO)c1cc(-c2cncc(Cl)c2)nn1-c1ccccc1` [Example 8], the IC50 amounted to 41.6 µM in experiment [1] and 4.9 µM in experiment [2].

`O=C(NO)c1cc(-c2cccc3ccsc23)nn1-c1ccccc1` [Example 2, N-Hydroxy-3-(benzothiophen-7-yl)-1-phenyl-1H-pyrazole-5-carboxamide]: the results for the IC50 in experiment [1] and in experiment [2] were 2.72 µM and 0.12 µM, respectively.
